Test results reported in ChEMBL document CHEMBL1944614, “A scaffold hopping approach to identify novel monoamine oxidase B inhibitors” (Bioorg Med Chem Lett, 2012).

Experiments:
[1] = target: T1, Amine oxidase [flavin-containing] B (Homo sapiens, UniProt P27338); experiment: Inhibition of human recombinant MAOB using kynuramine as substrate by fluorimetry
T1 sequence (P27338 whole entry): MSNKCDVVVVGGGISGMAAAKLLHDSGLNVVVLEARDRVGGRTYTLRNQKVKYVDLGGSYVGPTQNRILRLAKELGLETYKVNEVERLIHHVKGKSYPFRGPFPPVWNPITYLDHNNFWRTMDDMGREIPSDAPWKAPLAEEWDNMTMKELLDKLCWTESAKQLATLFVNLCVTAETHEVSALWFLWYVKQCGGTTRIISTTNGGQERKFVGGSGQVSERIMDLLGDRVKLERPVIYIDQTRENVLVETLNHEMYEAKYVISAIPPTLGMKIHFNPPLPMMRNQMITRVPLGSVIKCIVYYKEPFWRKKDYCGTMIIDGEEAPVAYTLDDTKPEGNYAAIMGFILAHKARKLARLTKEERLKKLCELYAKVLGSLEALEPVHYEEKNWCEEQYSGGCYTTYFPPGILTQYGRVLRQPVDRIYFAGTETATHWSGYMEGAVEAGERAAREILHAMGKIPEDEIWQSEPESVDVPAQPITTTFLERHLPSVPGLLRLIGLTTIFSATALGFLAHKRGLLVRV

[2] = target: T2, Amine oxidase [flavin-containing] A (Homo sapiens, UniProt P21397); experiment: Inhibition of human recombinant MAOA using kynuramine as substrate by fluorimetry
T2 sequence (P21397 whole entry): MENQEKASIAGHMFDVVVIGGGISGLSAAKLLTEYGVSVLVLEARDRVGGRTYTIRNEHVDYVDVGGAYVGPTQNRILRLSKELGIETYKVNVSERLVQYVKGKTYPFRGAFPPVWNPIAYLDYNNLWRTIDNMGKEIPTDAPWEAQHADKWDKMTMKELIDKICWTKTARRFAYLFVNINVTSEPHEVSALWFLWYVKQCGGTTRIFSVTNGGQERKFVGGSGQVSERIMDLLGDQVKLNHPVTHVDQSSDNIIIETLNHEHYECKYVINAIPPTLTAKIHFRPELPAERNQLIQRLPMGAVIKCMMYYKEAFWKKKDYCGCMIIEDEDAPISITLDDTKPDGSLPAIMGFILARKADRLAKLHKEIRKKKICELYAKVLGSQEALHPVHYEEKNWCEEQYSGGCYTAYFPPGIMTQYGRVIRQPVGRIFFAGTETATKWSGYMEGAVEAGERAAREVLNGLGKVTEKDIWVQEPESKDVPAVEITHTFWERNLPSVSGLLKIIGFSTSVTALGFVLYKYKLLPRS

[3] = target: T1, Amine oxidase [flavin-containing] B; experiment: Competitive inhibition of human recombinant MAOB by Lineweaver-Burk plot analysis

| IC50 [1] | IC50 [2] | inhibition (INH) [3] | SMILES |
| --- | --- | --- | --- |
| 11500 nM | 17700 nM |  | O=C1/C(=C/c2ccccc2O)Oc2cc(O)ccc21 |
| 2620 nM | > 100000 nM |  | COc1ccc(NC(=O)N2CCc3ccccc32)cc1 |
| 228 nM | 43500 nM | Active | O=C1NC(=O)/C(=C\c2ccc(Br)cc2)S1 |
| 921 nM | 5360 nM |  | CCOC1CC(c2ccccc2)=NN1c1ccc([N+](=O)[O-])cc1 (stereo not drawn) |
| 99 nM | 268 nM |  | CN(C)c1ccc(/C=C2\Oc3ccccc3C2=O)cc1 |
| 3350 nM | 40200 nM |  | Cc1ccc2c(c1)O/C(=C\c1ccccc1)C2=O |
|  | 979 nM |  | CN(C)c1ccc(/C=C2\Oc3cc(O)ccc3C2=O)cc1 |
| 13300 nM | > 100000 nM |  | Cc1[nH]n(-c2ccccc2)c(=O)c1/C=N/NC(=O)c1cccnc1 |
| 305 nM | 709 nM |  | O=C1/C(=C/c2ccc(Cl)cc2)Oc2ccccc21 |
